{
  "source": "patent US20080131420A1",
  "about": "“METHODS AND COMPOSITIONS FOR TREATING MUCOSAL INFLAMMATION” (Accentia, Inc., priority 2006, published 2008)",
  "type_in_all_cases": "cell-based",
  "key": {"Alternaria alternata [1]": {"tested_on": "Alternaria alternata", "assay": "Cylinder Agar Plate Assay (Example 3)", "description": "Cetyl pyridinium chloride (CPC) and benzalkonium chloride (BKC) were both independently tested to determine their efficacy of inhibiting Alternaria alternata, a fungus typically associated with non-invasive fungus-induced rhinosinusitis. An in vitro test of the efficacy of BKC and CPC in combination was also completed against Alternaria alternata.\nFive concentrations of BKC and CPC were independently tested against Alternaria alternata in a cylinder Agar Plate Assay. The CPC concentrations were 0.005%, 0.01%, 0.05%, 0.25% and 1.0%, whereas the BKC concentrations were 0.00025%, 0.001%, 0.005%, 0.025%, and 0.1%. These concentrations were chosen to include the concentrations in the SINOFRESH product as well as two concentrations above and two concentrations below the SINOFRESH product.\nFive concentrations of a combination of BKC and CPC were independently tested against Alternaria alternata in a cylinder Agar Plate Assay. The concentrations were as follows:\nFive concentrations of the SINOFRESH product were also subjected to the same Agar Plate Assay, with the same concentrations of BKC and CPC."}, "Alternaria alternata [2]": {"tested_on": "Alternaria alternata", "assay": "Antifungal Efficacy, sample diluted and plated, plates read for mold growth (Example 1)", "conditions": "100% sample; diluted and plated at 1, 4, 24 and 48 hours of incubation; plate read on days 2, 3 and 5", "experimental": "SINOFRESH Essential Nasal Cleansing Formula, which included cetylpyridinium chloride (CPC) at 0.02% and benzalkonium chloride (BKC) at 0.005%, was tested for its ability to inhibit Alternaria alternata, a fungus typically associated with non-invasive fungus-induced rhinosinusitis. Minimum Inhibitory Concentration (MIC), Antifungal Efficacy, and Selective Agar Streak were all determined, and met the pre-defined acceptance criteria that the negative control test tube had to remain free of growth throughout the study, while the positive control tube had to retain growth throughout the study. No deviations were noted during the study.\nA 100% sample of 0.02% cetylpyridinium chloride was tested for antifungal efficacy. At 1, 4, 24, and 48 hours of incubation, the sample was diluted and plated. On days 2, 3, and 5, the plate was read."}, "Alternaria alternata [3]": {"tested_on": "Alternaria alternata", "assay": "Inhibition of Alternaria alternata in RPMI-1640 broth tubes, visual growth rating 0-4 (Example 2)", "conditions": "spiked, 48 hours at 30-35°", "experimental": "Amphotericin-B and Parabens (methylparaben and propylparaben) were tested for their ability to inhibit the fungus Alternaria alternata. Samples were stored at 2-8° C. prior to use.\nPrepared an inoculating culture of Alternaria alternata by placing an ATCC pellet in 5 mL phosphate buffer, after dissolution spread the broth and dissolved pellet over the surface of a PDA plate using a FIG. 8 motion. The inoculum plate was incubated for five days at 20-25° C.\nAfter the five day incubation period, 3 ml of modified phosphate buffer was used to wet the surface growth of the PDA plate. The surface of the culture was washed with the buffer using a sterile spreader stick. After washing, a 10 mL pipette was used to remove as much of the wash as is possible without picking up any agar. The wash was pipetted into a sterile culture tube.\nSerial dilutions of the wash modified phosphate buffer were performed using modified phosphate buffer to determine the dilution that yields a mold population of 10^6 per mL. The dilutions were done by pipetting 1 mL of each dilution of the wash into molten potato dextrose agar plates pH 3.5 in quadruplicate, incubating at 20-25° C. for five days, assuring that there are not mixed cultures, and then counting the colonies on the plates. The correct dilution yielded counts of 30-300 CFU's. To maintain the correct dilution for inoculation, all dilutions were refrigerated at 2-8° C. until needed. […] A 0.1 mL aliquot of this dilution was used to inoculate the inhibition culture tubes.\nTwelve sterile test tubes were prepared with 9 mL Modified Synthetic Medium RPMI-1640 broth that has been tempered in a 45-50° C. water bath and labeled as follows: Amphotericin B neg. control, Ampho-B 100 spike, Ampho-B 2 spike, Ampho-B 1 spike, Ampho-B 0.5 spike, Paraben neg. control, Paraben 400/100 spike, Paraben 300/75 spike, Paraben 200/50 spike, Paraben 100/25 spike, Pos. control, Neg control.\nAn Amphotericin-B suspension was prepared by placing in suspension 10 mg of Amphotericin-B in 10 mL in modified phosphate buffer. The sample was mixed by vortex for 30 seconds. […]\nControl samples, Amphotericin B and Parabens dilutions were all prepared from the stock solutions. To all tube labeled “spike” and positive control, 0.1 mL of the inoculated buffer was added and determined to yield […]. […] The growth in each tube was recorded visually, on a 0-4 scale: 0: no growth observed, 1: slight growth or ˜25% of the growth control, 2: prominent growth or ˜50% of the growth control, 3: slight reduction in growth or ˜75% of the growth control, and 4: no reduction in growth or 100% of the growth control. […]"}},
  "note": "“Also recorded” adds a separate entry of the source.",
  "data": [
    {"molecule": "CCCCCCCCCCCCCCCC[n+]1ccccc1", "note": "[CPC, cetylpyridinium chloride]", "values": [
      {"measurement": "effect on the growth of Alternaria alternata", "setting": "Alternaria alternata [1]; CPC alone at 0.005%, 0.01%, 0.05%, 0.25% and 1.0%", "result": "most observable effect"},
      {"measurement": "mold growth on plate", "setting": "Alternaria alternata [2]", "result": "did not exhibit any mold growth"}
    ]},
    {"molecule": "C[C@@H]1[C@H](O)[C@@H](C)/C=C/C=C/C=C/C=C/C=C/C=C/C=C/[C@H](O[C@@H]2O[C@H](C)[C@@H](O)[C@H](N)[C@@H]2O)C[C@@H]2O[C@](O)(C[C@@H](O)C[C@@H](O)[C@H](O)CC[C@@H](O)C[C@@H](O)CC(=O)O[C@H]1C)C[C@H](O)[C@H]2C(=O)O", "note": "[Amphotericin B]", "values": [
      {"measurement": "Rating (growth, 0-4 scale)", "setting": "Alternaria alternata [3]; 0.5 μg/mL", "result": "2 (prominent growth or ˜50% of the growth control)"},
      {"measurement": "Rating (growth, 0-4 scale)", "setting": "Alternaria alternata [3]; 1.0 μg/mL", "result": "2 (prominent growth or ˜50% of the growth control)"},
      {"measurement": "Rating (growth, 0-4 scale)", "setting": "Alternaria alternata [3]; 2.0 μg/mL", "result": "1 (slight growth or ˜25% of the growth control)"},
      {"measurement": "Rating (growth, 0-4 scale)", "setting": "Alternaria alternata [3]; 100 μg/mL", "result": "1 (slight growth or ˜25% of the growth control)"}
    ]},
    {"molecule": "benzalkonium chloride [BKC]", "values": [
      {"measurement": "effect on the growth of Alternaria alternata", "setting": "Alternaria alternata [1]; BKC alone at 0.005% (concentration in the SINOFRESH product)", "result": "little to no effect; also recorded: essentially inactive"},
      {"measurement": "effect on the growth of Alternaria alternata", "setting": "Alternaria alternata [1]; BKC alone at concentrations of about 0.025% or above", "result": "some effect"}
    ]}
  ]
}
